Where a name gives a salt, the structure may show the parent alone. Read-outs that look alike come from different tables or passages of the source.
Tests used:
[1] = target: T1, SARS-CoV-2 PLpro (nsp3 1564–1878) (Severe acute respiratory syndrome coronavirus 2, UniProt P0DTD1); test: biochemical; design: FRET-quenched peptide (Pro3) cleavage by PLpro, 10 min pre-incubation, slope over 20 min, normalised to no-compound control; conditions: read-out: % of control remaining
[2] = target: T1, SARS-CoV-2 PLpro (nsp3 1564–1878); test: biochemical; design: FRET-quenched peptide (Pro3) cleavage by PLpro, 10 min pre-incubation, slope over 20 min, normalised to no-compound control; conditions: read-out: % of control remaining; remark: listed apart in the source

## CC(N)(COP(=O)(O)O)C(=O)O (stereo not shown) [2-methyl-O-phosphonoserine]
[1]; Well no.=5427, low concentration screen
  remaining activity at 1.25 µM: 96.2%
[2]; Well no.=5427, high concentration screen
  remaining activity at 3.75 µM: 101%

## CCc1nn(CCCN2CCN(c3cccc(Cl)c3)CC2)c(=O)n1CCOc1ccccc1 [2-{3-[4-(3-chlorophenyl)-1-piperazinyl]propyl}-5-ethyl-4-(2-phenoxyethyl)-2,4-dihydro-3H-1,2,4-triazol-3-one hydrochloride]
[1]; Well no.=5691, low concentration screen
  remaining activity at 1.25 µM: 99.4%
[2]; Well no.=5691, high concentration screen
  remaining activity at 3.75 µM: 96.7%

## OCCOc1ccc(/C(=C(/CCCl)c2ccccc2)c2ccccc2)cc1 [2-{4-[(1Z)-4-chloro-1,2-diphenyl-1-butenyl]phenoxy}ethanol]
[1]; Well no.=5956, low concentration screen
  remaining activity at 1.25 µM: 92.3%
[2]; Well no.=5956, high concentration screen
  remaining activity at 3.75 µM: 93.6%

## Cc1ccc(OCCSc2ncccn2)c(Br)c1 [2-{[2-(2-bromo-4-methylphenoxy)ethyl]sulfanyl}pyrimidine]
[1]; Well no.=6035, low concentration screen
  remaining activity at 1.25 µM: 95.4%
[2]; Well no.=6035, high concentration screen
  remaining activity at 3.75 µM: 94.6%

## CCCCCCCC/C=C\CCCCCCC(O)C(=O)O (stereo not shown) [2OHOA]
[1]; Well no.=5534, low concentration screen
  remaining activity at 1.25 µM: 97.8%
[2]; Well no.=5534, high concentration screen
  remaining activity at 3.75 µM: 96.7%

## N/C(=N\C(=O)c1nc(Cl)c(N)nc1N)NCc1ccc(Cl)c(Cl)c1 [3',4'-Dichlorobenzamil]
[1]; Well no.=440, low concentration screen
  remaining activity at 1.25 µM: 99.5%
[2]; Well no.=440, high concentration screen
  remaining activity at 3.75 µM: 88.3%

## [N-]=[N+]=N[C@H]1[C@@H](O)[C@H](n2cc(F)c(N)nc2=O)O[C@@H]1CO [3'-Azido-3'-deoxy-5-fluorocytidine]
[1]; Well no.=7910, low concentration screen
  remaining activity at 1.25 µM: 96.3%
[2]; Well no.=7910, high concentration screen
  remaining activity at 3.75 µM: 95%

## Cc1cn([C@@H]2O[C@H](CO)[C@@H](N=[N+]=[N-])[C@H]2O)c(=O)nc1N [3'-Azido-3'-deoxy-5-methylcytidine]
[1]; Well no.=7804, low concentration screen
  remaining activity at 1.25 µM: 98.2%
[2]; Well no.=7804, high concentration screen
  remaining activity at 3.75 µM: 97.5%

## [N-]=[N+]=N[C@@H]1[C@H](O)[C@@H](n2ccc(=O)[nH]c2=O)O[C@H]1CO [3'-Azido-3'-deoxy-beta-L-uridine]
[1]; Well no.=7758, low concentration screen
  remaining activity at 1.25 µM: 97.9%
[2]; Well no.=7758, high concentration screen
  remaining activity at 3.75 µM: 102%

## O=c1oc(Cl)c(Cl)c2ccccc12 [3,4-Dichloroisocoumarin]
[1]; Well no.=582, low concentration screen
  remaining activity at 1.25 µM: 100%
[2]; Well no.=582, high concentration screen
  remaining activity at 3.75 µM: 103%

## O=C(O)Cc1ccc(O)c(O)c1 [3,4-Dihydroxybenzeneacetic acid]
[1]; Well no.=6355, low concentration screen
  remaining activity at 1.25 µM: 104%
[2]; Well no.=6355, high concentration screen
  remaining activity at 3.75 µM: 106%

## O=C(O)Cc1ccc(O)c(O)c1 [3,4-Dihydroxyphenylacetic acid]
[1]; Well no.=442, low concentration screen
  remaining activity at 1.25 µM: 103%
[2]; Well no.=442, high concentration screen
  remaining activity at 3.75 µM: 104%

## COc1ccc(CC(=O)O)cc1OC [3,4-Dimethoxyphenylacetic acid]
[1]; Well no.=6639, low concentration screen
  remaining activity at 1.25 µM: 103%
[2]; Well no.=6639, high concentration screen
  remaining activity at 3.75 µM: 104%

## O=C(O)c1cc(O)cc(O)c1 [3,5-Dihydroxybenzoic acid]
[1]; Well no.=6829, low concentration screen
  remaining activity at 1.25 µM: 101%
[2]; Well no.=6829, high concentration screen
  remaining activity at 3.75 µM: 117%

## C#CCn1c(=O)c2c(ncn2C)n(C)c1=O [3,7-Dimethyl-I-propargylxanthine]
[1]; Well no.=498, low concentration screen
  remaining activity at 1.25 µM: 99.2%
[2]; Well no.=498, high concentration screen
  remaining activity at 3.75 µM: 97.4%

## CC(C)=CCc1cc2c(cc1O)oc(=O)c1c3ccc(O)cc3oc21 [3,9-dihydroxy-2-(3-methyl-2-butenyl)-6H-[1]benzofuro[3,2-c]chromen-6-one]
[1]; Well no.=6091, low concentration screen
  remaining activity at 1.25 µM: 95.4%
[2]; Well no.=6091, high concentration screen
  remaining activity at 3.75 µM: 87.9%

## CN(C)c1ccnc2sc3c(=O)n(N4CCCCCC4)cnc3c12 [3-(1-azepanyl)-9-(dimethylamino)pyrido[3',2':4,5]thieno[3,2-d]pyrimidin-4(3H)-one]
[1]; Well no.=5949, low concentration screen
  remaining activity at 1.25 µM: 92.3%
[2]; Well no.=5949, high concentration screen
  remaining activity at 3.75 µM: 93.5%

## Fc1ccc(C(OCCCc2cnc[nH]2)c2ccc(F)cc2)cc1 [3-(1H-Imidazol-4-yl)propyl di(p-fluorophenyl)methyl ether hydrochloride]
[1]; Well no.=1019, low concentration screen
  remaining activity at 1.25 µM: 93.6%
[2]; Well no.=1019, high concentration screen
  remaining activity at 3.75 µM: 95.3%

## N#Cc1cccc(-c2c[nH]c3ncnc(N4CCOCC4)c23)c1 [3-(4-morpholino-7H-pyrrolo[2,3-d]pyrimidin-5-yl)benzonitrile]
[1]; Well no.=5684, low concentration screen
  remaining activity at 1.25 µM: 97.4%
[2]; Well no.=5684, high concentration screen
  remaining activity at 3.75 µM: 99.8%

## Cc1cccc(-c2nn(C(=S)Nc3ccccc3)cc2-c2ccnc3ccccc23)n1 [3-(6-methyl-2-pyridinyl)-N-phenyl-4-(4-quinolinyl)-1H-pyrazole-1-carbothioamide]
[1]
  remaining activity at 1.25 µM: 99.2%
[2]
  remaining activity at 3.75 µM: 100%

## COc1ccc(C(=O)Nc2c(Cl)cncc2Cl)cc1OC1CCCC1 [3-(cyclopentyloxy)-N-(3,5-dichloro-4-pyridinyl)-4-methoxybenzamide]
[1]; Well no.=5876, low concentration screen
  remaining activity at 1.25 µM: 105%
[2]; Well no.=5876, high concentration screen
  remaining activity at 3.75 µM: 104%

## NCCCS(=O)(=O)O [3-Amino-1-propanesulfonic acid sodium]
[1]; Well no.=301, low concentration screen
  remaining activity at 1.25 µM: 98%
[2]; Well no.=301, high concentration screen
  remaining activity at 3.75 µM: 98.1%

## CC(CN)C(=O)O (stereo not shown) [3-Amino-2-methylpropanoic acid]
[1]; Well no.=6787, low concentration screen
  remaining activity at 1.25 µM: 101%
[2]; Well no.=6787, high concentration screen
  remaining activity at 3.75 µM: 97.6%

## CC(C)C(N)CC(=O)O (stereo not shown) [3-Amino-4-methylpentanoic acid]
[1]; Well no.=6403, low concentration screen
  remaining activity at 1.25 µM: 103%
[2]; Well no.=6403, high concentration screen
  remaining activity at 3.75 µM: 105%

## O=C(O)/C=C/C(=O)O [3-Aminopropionitrile fumarate]
[1]; Well no.=251, low concentration screen
  remaining activity at 1.25 µM: 92.7%
[2]; Well no.=251, high concentration screen
  remaining activity at 3.75 µM: 93.7%

## NCCCP(=O)(O)O [3-Aminopropylphosphonic acid]
[1]; Well no.=357, low concentration screen
  remaining activity at 1.25 µM: 90.6%
[2]; Well no.=357, high concentration screen
  remaining activity at 3.75 µM: 93.7%

## O=C(O)/C=C/c1c[nH]c2ccccc12 [3-Beta-Indoleacrylic acid]
[1]; Well no.=3773, low concentration screen
  remaining activity at 1.25 µM: 99%
[2]; Well no.=3773, high concentration screen
  remaining activity at 3.75 µM: 101%

## O=[N+]([O-])c1cccc2c(Br)[nH]nc12 [3-Bromo-7-nitroindazole]
[1]; Well no.=27, low concentration screen
  remaining activity at 1.25 µM: 98.5%
[2]; Well no.=27, high concentration screen
  remaining activity at 3.75 µM: 96.1%

## N[C@@H](Cc1ccc(O)c(Cl)c1)C(=O)O [3-Chloro-L-tyrosine]
[1]; Well no.=7491, low concentration screen
  remaining activity at 1.25 µM: 101%
[2]; Well no.=7491, high concentration screen
  remaining activity at 3.75 µM: 101%

## Nc1nccc2c1ncn2[C@@H]1O[C@H](CO)[C@@H](O)[C@H]1O [3-Deazaadenosine (hydrochloride)]
[1]; Well no.=7808, low concentration screen
  remaining activity at 1.25 µM: 96.7%
[2]; Well no.=7808, high concentration screen
  remaining activity at 3.75 µM: 92.6%

## Nc1c(O)cccc1C(=O)O [3-Hydroxyanthranilic acid]
[1]; Well no.=6535, low concentration screen
  remaining activity at 1.25 µM: 102%
[2]; Well no.=6535, high concentration screen
  remaining activity at 3.75 µM: 91.9%

## NNCc1cccc(O)c1 [3-Hydroxybenzylhydrazine dihydrochloride]
[1]; Well no.=568, low concentration screen
  remaining activity at 1.25 µM: 104%
[2]; Well no.=568, high concentration screen
  remaining activity at 3.75 µM: 97.9%

## CC(O)CC(=O)O (stereo not shown) [3-Hydroxybutyric acid]
[1]; Well no.=7117, low concentration screen
  remaining activity at 1.25 µM: 103%
[2]; Well no.=7117, high concentration screen
  remaining activity at 3.75 µM: 99%

## O=C(O)CNC(=O)c1cccc(O)c1 [3-Hydroxyhippuric acid]
[1]; Well no.=7219, low concentration screen
  remaining activity at 1.25 µM: 102%
[2]; Well no.=7219, high concentration screen
  remaining activity at 3.75 µM: 99.6%

## CC(C)(O)CC(=O)O [3-Hydroxyisovaleric acid]
[1]; Well no.=6925, low concentration screen
  remaining activity at 1.25 µM: 108%
[2]; Well no.=6925, high concentration screen
  remaining activity at 3.75 µM: 98.6%

From PMC8286840, “Identifying SARS-CoV-2 antiviral compounds by screening for small molecule inhibitors of Nsp3 papain-like protease” (Biochemical Journal, 2021)
